# Data taken from US4179565A, “2,5-Dimethyl-benzo[b]-thieno[2,3-f]morphan and precursors thereof” (priority 1977, dated 1979).
# Assays:
# I.C.R. Swiss albino mice [1] = assay: Thermal analgesia, hot plate technique at 55° C.; type: in vivo; settings: 50mg/kg, intraperitoneal; for thermal analgesic activity (in words): compared with dextropropoxyphene / control; for Jumping time, mean ± S.E.M.: 30 minutes
# Description: The thermal analgesic effect was studied on I.C.R. Swiss albino mice. The hot plate technique was used at 55° C. Batches of 10 mice were made.
# The products under study were administered intraperitoneally and after 30 minutes the mice were placed on the hot plate, counting the number of seconds they took to jump. Batches of control animals which are only injected with distilled water are used.
# I.C.R. Swiss albino mice [2] = assay: Chemical analgesia, acetic acid writhing technique; type: in vivo; settings: 25mg/kg, intraperitoneal; for analgesic activity, acetic acid writhing (in words): compared with dextropropoxyphene; for No. of writhes, mean ± S.E.M.: 20 minutes after acetic acid; for Significance of differences vs Dextropropoxyphene: No. of writhes
# Description: The analgesic effect was studied on I.C.R. Swiss albino mice with the acetic acid writhing technique. Batches of 10 mice were made.
# The products under study were administered intraperitoneally and after 30 minutes 0.25 ml of 1% acetic acid are injected intraperitoneally. A batch of control animals which only receive acetic acid is used. The number of writhes in each mouse is counted 20 minutes after administration of the acetic acid.
# [3] = Acute toxicity (LD50, Litchfield-Wilcoxon test); settings: mouse, in vivo, ip; intraperitoneal; deaths counted 48 hours after treatment; fasted mice
# Description: Acute toxicity studies were performed on I.C.R. Swiss albino mice of both sexes weighing 30±2 g, kept fasting for 24 hours prior to the experiment. The room temperature and relative humidity were kept constant. The products were administered intraperitoneally, counting the number of deaths 48 hours after the treatment. The calculation of lethal dose 50 (LD50) was made by the Litchfield-Wilcoxon test.
# [4] = Table III, Control 48.8 ± 5.033
# [5] = Table VI, Control 109.9 ± 6.362
# [6] = Table VII, Control 109.9 ± 6.362
smiles,measurement,setting,value
"CC1=CCN(C)C(Cc2csc3ccccc23)C1 (stereo not drawn) [Product II, 2-(3-benzo[b]thienylmethyl)-1,4-dimethyl-1,2,3,6-tetrahydropyridine]",thermal analgesic activity (in words),I.C.R. Swiss albino mice [1],lacking thermal analgesic activity
same,"Jumping time, mean ± S.E.M.",I.C.R. Swiss albino mice [1]; [4],63 ± 8.368 s
same,"analgesic activity, acetic acid writhing (in words)",I.C.R. Swiss albino mice [2],not significantly different from that of dextropropoxyphene
same,"No. of writhes, mean ± S.E.M.",I.C.R. Swiss albino mice [2]; [5],41.2 ± 6.024
same,Significance of differences vs Dextropropoxyphene,I.C.R. Swiss albino mice [2]; Table VI,N.S.
same,LD50 at 48 h,[3],916 mg/kg
"CCC(=O)O[C@](Cc1ccccc1)(c1ccccc1)[C@H](C)CN(C)C [Dextropropoxyphene, dextropropoxyphene, reference compound]","Jumping time, mean ± S.E.M.","I.C.R. Swiss albino mice [1]; Table II, Control 64 ± 7.919",164 ± 7.319 s
same,"Jumping time, mean ± S.E.M.",I.C.R. Swiss albino mice [1]; [4],91.3 ± 7.894 s
same,"Jumping time, mean ± S.E.M.","I.C.R. Swiss albino mice [1]; Table IV, Control 48.8 ± 5.033",91.3 ± 7.894 s
same,"No. of writhes, mean ± S.E.M.","I.C.R. Swiss albino mice [2]; Table V, Control 101.4 ± 8.973",21.5 ± 5.929
same,"No. of writhes, mean ± S.E.M.",I.C.R. Swiss albino mice [2]; [5],27.8 ± 8.365
same,"No. of writhes, mean ± S.E.M.",I.C.R. Swiss albino mice [2]; [6],27.8 ± 8.365
"CN1CCC2(C)CC1Cc1c2sc2ccccc12 (racemic) [Product I, 2,5-dimethyl-benzo[b]thieno[2,3-f]morphan]",thermal analgesic activity (in words),I.C.R. Swiss albino mice [1],analgesic activity which is not significantly different from that of dextropropoxyphene
same,"Jumping time, mean ± S.E.M.","I.C.R. Swiss albino mice [1]; Table II, Control 64 ± 7.919",168.67 ± 11.334 s
same,Significance of differences vs Dextropropoxyphene,"I.C.R. Swiss albino mice [1]; Table II, jumping time",N.S.
same,"analgesic activity, acetic acid writhing (in words)",I.C.R. Swiss albino mice [2],greater analgesic activity then dextropropoxyphene
same,"No. of writhes, mean ± S.E.M.","I.C.R. Swiss albino mice [2]; Table V, Control 101.4 ± 8.973",3.1 ± 1.234
same,LD50 at 48 h,[3],35.2 mg/kg
"CC1=CC(Cc2csc3ccccc23)N(C)CC1 (stereo not drawn) [Product III, 2-(3-benzo[b]thienylmethyl)-1,4-dimethyl-1,2,5,6-tetrahydropyridine]",thermal analgesic activity (in words),I.C.R. Swiss albino mice [1],lacking thermal analgesic activity
same,"Jumping time, mean ± S.E.M.","I.C.R. Swiss albino mice [1]; Table IV, Control 48.8 ± 5.033",48.9 ± 5.292 s
same,"analgesic activity, acetic acid writhing (in words)",I.C.R. Swiss albino mice [2],not significantly different from that of dextropropoxyphene
same,"No. of writhes, mean ± S.E.M.",I.C.R. Swiss albino mice [2]; [6],22.5 ± 6.263
same,Significance of differences vs Dextropropoxyphene,I.C.R. Swiss albino mice [2]; Table VII,N.S.
same,LD50 at 48 h,[3],275 mg/kg
